Laboratory results published in PubChem BioAssay (NCI).
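Interpolation was linear, between the two tested concentrations surrounding the appropriate level; five concentrations were tested over 48 hours in 96-well plates. TGI: total growth inhibition.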

Key:
Assay in all cases: inhibition of tumour cell growth, NCI panel, 48 h
[1] = test system: DMS 273 small cell lung
[2] = test system: SK-MEL-2 melanoma
[3] = test system: K-562 leukemia
[4] = test system: OVCAR-8 ovarian
[5] = test system: U251 CNS
[6] = test system: DLD-1 colon
[7] = test system: SN12C renal
[8] = test system: 786-0 renal
[9] = test system: UACC-62 melanoma
[10] = test system: TK-10 renal
[11] = test system: SK-MEL-5 melanoma
[12] = test system: KM12 colon
[13] = test system: UACC-257 melanoma
[14] = test system: UO-31 renal
[15] = test system: NCI-H460 lung
[16] = test system: HCC-2998 colon
[17] = test system: LOX IMVI melanoma
[18] = test system: SF-539 CNS
[19] = test system: RPMI-8226 leukemia
[20] = test system: KM20L2 colon
[21] = test system: HOP-62 NSCLC
[22] = test system: MOLT-4 leukemia
[23] = test system: SNB-75 CNS
[24] = test system: A498 renal
[25] = test system: HT29 colon
[26] = test system: HL-60(TB) leukemia
[27] = test system: OVCAR-4 ovarian
[28] = test system: CAKI-1 renal
[29] = test system: CCRF-CEM leukemia
[30] = test system: SR leukemia
[31] = test system: M19-MEL melanoma
[32] = test system: M14 melanoma
[33] = test system: OVCAR-3 ovarian
[34] = test system: HCT-116 colon
[35] = test system: RXF-631 renal
[36] = test system: DMS 114 small cell lung
[37] = test system: NCI-H23 lung
[38] = test system: HCT-15 colon
[39] = test system: A549 NSCLC
[40] = test system: NCI-H522 lung
[41] = test system: SW-620 colon
[42] = test system: EKVX NSCLC
[43] = test system: ACHN renal
[44] = test system: SNB-19 CNS
[45] = test system: COLO 205 colon
[46] = test system: RXF 393 renal
[47] = test system: LXFL 529 NSCLC
[48] = test system: SF-295 CNS
[49] = test system: IGROV1 ovarian
[50] = test system: MALME-3M melanoma
[51] = test system: DU-145 prostate
[52] = test system: HOP-92 NSCLC
[53] = test system: HOP-18 NSCLC
[54] = test system: SNB-78 CNS
[55] = test system: SK-MEL-28 melanoma
[56] = test system: XF 498 CNS
[57] = test system: SK-OV-3 ovarian
[58] = test system: NCI-H226 lung
[59] = test system: SF-268 CNS
[60] = test system: OVCAR-5 ovarian

For `CN(C)C(=O)CC(C(=O)O)c1c[nH]c2ccccc12` (configuration not stated), the TGI [1] was > 100 µM, the TGI [2] was > 100 µM and the TGI [3] was > 100 µM. The TGI [4] was > 100 µM, the TGI [5] was > 100 µM and the TGI [6] was > 100 µM. The TGI [7] was > 100 µM, the TGI [8] was > 100 µM and the TGI [9] was > 100 µM. The TGI [10] was > 100 µM, the TGI [11] was > 100 µM and the TGI [12] was > 100 µM. The TGI [13] was > 100 µM, the TGI [14] was 41.6 µM and the TGI [15] was > 100 µM. For the same molecule, the TGI [16] was > 100 µM, the TGI [17] was > 100 µM and the TGI [18] was > 100 µM. The TGI [19] was > 100 µM, the TGI [20] was > 100 µM and the TGI [21] was > 100 µM. The TGI [22] was > 100 µM, the TGI [23] was > 100 µM and the TGI [24] was > 100 µM. The TGI [25] was > 100 µM, the TGI [26] was > 100 µM and the TGI [27] was > 100 µM. For the same molecule, the TGI [28] was > 100 µM, the TGI [29] was > 100 µM and the TGI [30] was > 100 µM. For the same molecule, the TGI [31] was > 100 µM, the TGI [32] was > 100 µM and the TGI [33] was > 100 µM. For the same molecule, the TGI [34] was > 100 µM, the TGI [35] was > 100 µM and the TGI [36] was > 100 µM. The TGI [37] was > 100 µM, the TGI [38] was > 100 µM and the TGI [39] was > 100 µM. The TGI [40] was > 100 µM, the TGI [41] was > 100 µM and the TGI [42] was > 100 µM. For the same molecule, the TGI [43] was > 100 µM, the TGI [44] was > 100 µM and the TGI [45] was > 100 µM. For the same molecule, the TGI [46] was > 100 µM, the TGI [47] was > 100 µM and the TGI [48] was > 100 µM. The TGI [49] was > 100 µM and the TGI [50] was > 100 µM.
Molecule `C=C(CN(CC(=C)C(=O)c1ccccc1)C(C)(C)C)C(=O)c1ccccc1` has a TGI [1] of 32.4 µM, a TGI [2] of 35.3 µM and a TGI [3] of 21.1 µM. It also gave a TGI [4] of 67.9 µM, a TGI [5] of 39.4 µM and a TGI [6] of 10.2 µM. It also gave a TGI [7] of 32.5 µM, a TGI [8] of 24.5 µM and a TGI [9] of 32.4 µM. The TGI [10] was 27 µM, the TGI [11] was 31.1 µM and the TGI [12] was 17.6 µM. For the same molecule, the TGI [13] was 32.6 µM, the TGI [14] was 24.3 µM and the TGI [15] was 43.2 µM. For the same molecule, the TGI [51] was 40.3 µM, the TGI [16] was 33.3 µM and the TGI [17] was 30.8 µM. For the same molecule, the TGI [52] was 15 µM, the TGI [18] was 31.5 µM and the TGI [53] was 14.3 µM. The TGI [19] was 68.4 µM, the TGI [20] was 37.5 µM and the TGI [22] was 10.2 µM. The TGI [23] was 17.6 µM, the TGI [24] was 32.9 µM and the TGI [25] was 41.9 µM. It also gave a TGI [54] of 53.7 µM, a TGI [55] of 36.8 µM and a TGI [26] of 9.7 µM. For the same molecule, the TGI [56] was 16 µM, the TGI [27] was 29.3 µM and the TGI [28] was 14.5 µM. The TGI [29] was > 21 µM, the TGI [30] was > 21 µM and the TGI [31] was 30 µM. The TGI [32] was 23 µM, the TGI [33] was 37.5 µM and the TGI [34] was 26.8 µM. For the same molecule, the TGI [36] was 33.5 µM, the TGI [57] was 34.4 µM and the TGI [37] was 32.7 µM. The TGI [58] was 48.4 µM, the TGI [39] was > 77.7 µM and the TGI [40] was 29.4 µM. The TGI [59] was 17 µM, the TGI [41] was 9.91 µM and the TGI [42] was 44.4 µM. The TGI [43] was 21.3 µM, the TGI [44] was > 59.9 µM and the TGI [45] was 7.52 µM. The TGI [46] was 18.7 µM, the TGI [47] was 10.1 µM and the TGI [48] was > 54.2 µM. It also gave a TGI [49] of 40.3 µM, a TGI [50] of 29.7 µM and a TGI [60] of 34.3 µM.
